Data published in patent US20240036032A1, “PREDICTIVE IN VITRO ASSAY MIMICKING IN VIVO PHARMACOLOGY” (MIMI-Q GMBH, priority 2020, published 2024).
Like-named read-outs stand apart in the source and are kept apart here. Marks after values point to notes of the source that are not given here.

Columns and labels:
[1] = test system: chemo-resistant metastatic CRC; conditions: absence of genetic selection; cited from earlier work
[2] = NCI Database; cited from earlier work
[3] = Clinical pharmacokinetics parameters of mFOLFOX6 active substances from published data; format: in vivo, Humans; conditions: 5-fluorouracil bolus, sequence number 2, calculated to a dose of 400 mg/m^2 assuming linear kinetics
Description: Pharmacokinetics parameters for all substances presented in Table 3 were identified based on published data. Substances of administration 1 (Oxaliplatin) and 2 (5-Fluorouracil) present simultaneously in the body, so time point of addition of 2 (5-Fluorouracil) was selected in a timeframe of selected incubation time for 1 (Oxaliplatin). Substances of administration 2 (5-Fluorouracil) and 3 (5-Fluorouracil) also present simultaneously in the body, so time point of addition of 3 (5-Fluorouracil) was selected in a timeframe of selected duration of exposure for 2 (5-Fluorouracil).

colon cancer organoids = experiment: Half growth inhibitory concentration (GI50): serial dilutions, 72 hours, MTS assay; format: cell-based, human (patient)
Description: A patient was diagnosed with colon cancer and mFOLFOX6 chemotherapeutic treatment was prescribed. To obtain primary organoid culture of colon cancer cells a sample of resected lung metastasis was used. Tissue was cut into small fragments and placed immediately into MACS tissue storage solution (Miltenyi Biotec, Germany) and stored for no more than 24 hours at 4° C. Then, the tissue fragments were transferred to a tube for tissue homogenization gentleMACS C Tube (Miltenyi Biotec, Germany) and enzyme cocktail from Tumor Dissociation Kit human (Miltenyi Biotec, Germany) consisting of 2.2 ml of DMEM/F-12 culture medium (Thermo Fisher Scientific, USA), 100 μl of Enzyme H solution (Miltenyi Biotec, Germany), 50 μl of Enzyme R solution (Miltenyi Biotec, Germany) and 12.5 μl of Enzyme A solution (Miltenyi Biotec, Germany) was added to the same tube. Then the tube was tightly closed with a lid and placed in gentleMACS Octo Dissociator (Miltenyi Biotec, Germany). For tissue dissociation, the “37C_h_TDK_3” program was used. […]
Organoids were diluted in Matrigel Growth Factor Reduced (GFR) Basement Membrane Matrix (Corning, USA) and seeded into 96-well plate (TPP, Switzerland). […] Relative number of cells was measured with MTS assay CellTiter 96 Aqueous One Solution Cell Proliferation Assay kit (Promega, USA) according to the manufacturer's instructions (FIG. 2). […]

[4] = cited from earlier work
[5] = 5-fluorouracil continuous infusion, sequence number 3
[6] = oxaliplatin infusion, mFOLFOX6, sequence number 1

For panitumumab: anti-EGFR therapy drug, the “patients responding to anti-EGFR therapy” value [1] is given as 10%.
In the case of `Nc1nc2c(c(=O)[nH]1)N(C=O)C(CNc1ccc(C(=O)N[C@@H](CCC(=O)O)C(=O)O)cc1)CN2` (stereo partly shown) [Leucovorin, Leucovorin Calcium (Folinic Acid)], the “direct cytotoxic or cytostatic effect” value [2] is listed as “does not possess direct cytotoxic or cytostatic effect”.
With `O=c1[nH]cc(F)c(=O)[nH]1` [5-Fluorouracil, 5-fluorouracil] the Area under curve [3] was 82.1* μM·, the Cmax ([3]; human, in vivo, intravenous, 400 mg/m2) was 273 µM and the “sensitivity of organoids judged from GI50” value (colon cancer organoids; Example 3, FIG. 3b) was “sensitive”. For the same compound, the GI50 (colon cancer organoids; Homo sapiens, Example 3, organoids from resected lung metastasis, 72 hours incubation) was 2.26 µM, the Area under curve [4, 5] was 156.4 µM and the Cmax [4, 5] was 5.5 µM.
In the case of `O=C1[O][Pt]2([NH][C@@H]3CCCC[C@H]3[NH]2)[O]C1=O` [Oxaliplatin], the Area under curve [4, 6] is listed as 6.8 µM and the Cmax [4, 6] is listed as 3.6 µM.
